Like-named read-outs stand apart in the source and are kept apart here.
How the values were obtained:
[1] = target: T1, recombinant human 72 kD type IV collagenase (Oncologix), APMA activated (Homo sapiens, UniProt P08253); test: gelatinase assay, Example 11; format: biochemical
T1 construct: purchased Oncologix
T1 sequence (P08253 110-660): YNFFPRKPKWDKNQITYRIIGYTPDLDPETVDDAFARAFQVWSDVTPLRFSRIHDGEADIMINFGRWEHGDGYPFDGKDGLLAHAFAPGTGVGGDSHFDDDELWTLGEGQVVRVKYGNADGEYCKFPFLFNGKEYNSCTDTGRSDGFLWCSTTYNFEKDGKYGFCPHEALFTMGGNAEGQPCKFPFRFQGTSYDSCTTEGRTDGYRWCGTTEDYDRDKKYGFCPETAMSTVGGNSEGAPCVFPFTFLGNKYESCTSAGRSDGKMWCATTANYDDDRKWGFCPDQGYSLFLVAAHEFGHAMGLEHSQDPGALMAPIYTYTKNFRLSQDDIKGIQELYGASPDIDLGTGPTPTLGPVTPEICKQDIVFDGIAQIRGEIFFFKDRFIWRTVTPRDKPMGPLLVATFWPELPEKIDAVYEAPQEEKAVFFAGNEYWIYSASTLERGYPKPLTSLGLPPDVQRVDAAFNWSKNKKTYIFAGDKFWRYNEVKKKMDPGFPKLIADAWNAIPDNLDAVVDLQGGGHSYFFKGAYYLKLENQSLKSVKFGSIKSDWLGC
Experimental: NET-660 Collagen (Rat Type I), N-[Propionate-2-3-^3 H] Propionylated (NEN Dupont) with a specific activity of 0.4 mCi/mg, rat type I Collagen (Sigma), P-aminophenylmercuric acetate, APMA (Sigma), recombinant human 72 kD type IV collagenase (Oncologix) with a specific activity of at least 1000 μg collagen digested/hour/μg enzyme, collagenase buffer (50 mM Tris-HCl, 5 mM CaCl2, 200 mM NaCl, 0.02% Brij-35, pH 7.6), bovine serum albumin (BSA), 250 mM EDTA, and 10% TCA+0.7% tannic acid. The substrate is prepared by mixing the ^3 H collagen with the cold collagen at a 2/3 ratio and diluting in the collagenase buffer. The final assay concentration of the ^3 H collagen is 1% or between 20,000 to 40,000 cpm. Inhibitors are prepared just prior to use by dissolving in DMSO (final assay concentration<1%) or collagenase buffer.
The 72 kD collagenase enzyme is activated with 0.5 mM APMA for 30 min. at 37° C. and 10 ng of enzyme per assay is used. Inhibitors are preincubated with activated enzyme for 2 hours at 37° C. in collagenase buffer. Substrate is then added to enzyme inhibitor mix and the assay is run for 20 min at 37° C. […] Undigested substrate is precipitated with the TCA/tannic acid solution and soluble counts are determined in a scintillation counter.

[2] = system: HT-1080 cells (human fibrosarcoma); test: in vitro invasion assay through matrigel (Transwell); format: cell-based
Experimental: Razoxane, various bis(hydroxylated)(2,6-dioxopiperazine)s, and various hydrophobic analogs were tested in an in vitro assay for inhibition of tumor cell penetration of a reconstituted basement membrane, matrigel, isolated from the Englegbreth-Holm-Swarm (EHS) tumor (disclosed in Kleinman et al., Biochem. (1982), 24, 6188-6193) first described by Albini et al, Cancer Res. (1987) 47, 3234-3245. An 8 μm pore filter coated with matrigel separates a lower compartment containing a chemoattractant and an upper compartment containing the cells and test compound. In particular, the following compounds were tested: razoxane, (1α, 2α, 4α, 5α)-4,4'-(4,5-dihydroxy-1,2-cyclohexanediyl)bis(2,6-piperazinedione); (1α, 2α, 4β, 5β)-4,4'-(4,5-dihydroxy-1,2-cyclohexanediyl)bis(2,6-piperazinedione);(1β, 2α,4α,5α)-4,4'-(4,5-dihydroxy-1,2-cyclohexanediyl)bis(2,6-piperazinedione); (1β, 2α, 4α,5β)-4,4'-(4,5-dihydroxy-1,2-cyclohexanediyl)bis(2,6piperazinedione); (1α, 2β, 4α,5β)-4,4'-(4,5-dihydroxy-1,2cyclohexanediyl)bis(2,6-piperazinedione); N,N'-cyclohexane-1,2-diylbis[N(2-ethoxy-2-oxoethyl)]glycine; N,N'-4-cyclohexene-1,2-diylbis[N-(2-ethoxy-2-oxoethyl)-glycine ester; (3aα, 5β, 6β, 7aα)-4,4'-(hexahydro-2,2-dimethyl1,3-benzodioxole-5,6-diyl)bis(2,6-piperazinedione); (3aα, 5α, 6α, 7aα)-4,4'-(hexahydro-2,2-dimethyl-1,3-benzodioxole-5,6-diyl)bis(2,6- piperazinedione); (3aα, 5α, 6β, 7aα)-4,4'-(hexahydro-2,2-dimethyl-1,3-benzodioxole-5,6-diyl)bis-2,6- piperazinedione; (3aα, 5β, 6α, 7aβ)-4,4'-(hexahydro-2,2dimethyl-1,3-benzodioxole-5,6-diyl)bis(2,6-piperazinedione); and (3aα, 5α, 6β, 7aβ)-4,4'-(hexahydro-2,2-dimethyl-1,3-benzodioxole-5,6-diyl) bis(2,6piperazinedione). Metastatic cells are able to degrade the basement membrane protein barrier and migrate through the pores of the filter whereas non-metastatic cells remain on the upper surface. The cells that pass to the under side of the filter are then counted under a microscope. […] Variations of this assay have been used to correlate this in vitro invasion with metastatic potential in vivo (Albini et al. (Id.); Hendrix et al. Cancer Letters (1987); 38, 127-247; Repesh L. A., Invasion Metastasis (1989) 9, 192-208 to select for more highly invasive cells (Teranova et al., Proc. Nat. Acad. Sci., (1986), 83, 465, 464; Tullberg et al., Invasion Metastasis, (1989), 9, 13-26; Sefer et al., Biotechniques, (1990), 9, 324-331), and to test compounds for inhibition (Nakajima et al., Cancer Res. (1989), 49, 1698-1756).
This method has been improved to increase the number of assays which may be performed and analyzed per day. In particular, such improvement comprises the use of disposable Transwells (Costar) units described by Repesh et al., Invasion Metastasis, (1989), 9, 192-208, which consist of an 8 μm pore filter attached to an insert that fits in a 24 well culture plate. Matrigel concentration is titrated from zero to complete inhibition of motility of each invasive cell line used in the assay and for each batch of matrigel. The matrigel concentration which yields 50% or greater inhibition of motility in a 6 hr assay (usually from 15 to 50 μg of protein per filter) is chosen for determination of invasion. Motility of cells through the 8 μm filters is not by passive diffusion since the pore size is smaller than the cells, and is determined in the same chamber in the absence of matrigel. Motility is stimulated two-fold by the presence of fibroblast conditioned medium (3T3 cells) as a chemoattractant (data not shown). The cell lines used are HT-1080, a human fibrosarcoma, and MDA-MB-231, a human breast carcinoma (both available from the American Type Tissue Culture). These cell lines express both the 72 kD and the 92 kD collagenase type IV as determined by zymography (data not shown).
For inhibition studies, 5×10^5 cells are plated in 200 μl of DMEM+0.1% BSA+the inhibitor (or appropriate solvent control) into the upper chamber of the Transwell. […]

Compound	IC50 ([1]; 10 ng enzyme, 2 hours preincubation at 37° C., 20 min assay, 3H collagen substrate, read-out: IC50 for inhibition of the 72 kD collagenase type IV)	inhibition at 125 µM ([2]; Homo sapiens, HT-1080, at 125 μM, 6 hour assay, read-out: maximum inhibition of invasion)	inhibition of invasion ([2]; preliminary screen)	effect on cell motility ([2]; preliminary screen, no matrigel)	IC50 [1]	consistent inhibition of invasion without effect on motility ([2]; from 250 μM to 1 mM)
CC1(C)O[C@H]2C[C@H](N3CC(=O)NC(=O)C3)[C@@H](N3CC(=O)NC(=O)C3)C[C@@H]2O1 (relative stereo) [Compound 80, (3aα, 5β, 6α, 7aβ)-4,4'-(hexahydro-2,2-dimethyl-1,3-benzodioxole-5,6-diyl)bis(2,6-piperazinedione)]	1.8 µM	62%	inhibit invasion	without inhibiting cell motility		
CC(CN1CC(=O)NC(=O)C1)N1CC(=O)NC(=O)C1 (stereo not drawn) [razoxane]					44 µM	could not be demonstrated
